The values below come from the supplement of paper PMC3974653.

Counter-ions that a name gives are not always drawn.

The test system of this experiment is MTT (mouse pheochromocytoma). Put plainly: IC50 of cell viability (ATP content). The following applies: (24 or 48 h). The gist of the method:
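CellTiter-Glo ATP luminescence, read after 15 minutes, was used to assess MTT mouse pheochromocytoma cells treated for 24 or 48 hrs with library compounds (final 0.5 nM to 46 µM, 8 concentrations). The cells had been plated at 5 µl of 200,000 cells/ml per well in white 1536-well plates in DMEM with 5% FBS and 1% horse serum and cultured overnight at 37°C, 5% CO2. Normalisation set positive-control wells to 100% and DMSO wells to 0%. The IC50 was then determined by four-parameter logistic fitting.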
`CC[N+](C)(CC)CCOC(=O)C1c2ccccc2Oc2ccccc21` [Methantheline bromide]: the “IC50 of cell viability” value was greater than 46 µM.
`CC1=CC=CC=C1N2\C(=N/C3=CC=CC=C3C2=O)C` [Methaqualone]: the “IC50 of cell viability” value is greater than 46 µM.
For the compound `CC(=O)/N=c1/sc([S+](N)(=O)[O-])nn1C` [Methazolamide], the “IC50 of cell viability” value is greater than 46 µM.
Consider `COC/1=N/N(CS[P](=S)(OC)OC)C(=O)S1` [Methidathion], for which the “IC50 of cell viability” value was greater than 46 µM.
In the case of `Cn1ccnc1S` [Methimazole], the “IC50 of cell viability” value is greater than 46 µM.
For `COc1ccccc1OC[C@H](O)COC(N)=O` [Methocarbamol], the “IC50 of cell viability” value is greater than 46 µM.
For `COC(C)(C)CCCC(C)C/C=C/C(C)=C/C(=O)OC(C)C` (stereo unspecified) [Methoprene], the “IC50 of cell viability” value was greater than 46 µM.
Turning to `COc1ccc2c(c1)N(C[C@@H](C)CN(C)C)c1ccccc1S2` [Methotrimeprazine maleat salt], the “IC50 of cell viability” value was greater than 46 µM.
With `COC1=C2OC(=O)\C=C/C2=CC3=C1OC=C3` [Methoxsalen], the “IC50 of cell viability” value is greater than 46 µM.
`COc1ccc(C(c2ccc(OC)cc2)C(Cl)(Cl)Cl)cc1` [Methoxychlor]: the “IC50 of cell viability” value is greater than 46 µM.
As for `CNC(C)Cc1ccccc1OC` (stereo unspecified) [Methoxyphenamine], the “IC50 of cell viability” value is greater than 46 µM.
Then `CN1C(=O)CC(C)(c2ccccc2)C1=O` (stereo unspecified) [Methsuximide], with greater than 46 µM.
As to `COC(C)=O` [Methyl acetate], the “IC50 of cell viability” value was greater than 46 µM.
On to `COC(=O)c1ccccc1O` [Methyl salicylate], for which the “IC50 of cell viability” value was greater than 46 µM.
`C[N+]1(C)[C@@H]2CC[C@@H]1CC(OC(=O)[C@@H](CO)c1ccccc1)C2.O=[N+]([O-])[O-]` (stereo partly specified) [Methylatropine nitrate]: the “IC50 of cell viability” value was greater than 46 µM.
The figure for `Cc1cc(C(C)(C)CC(C)(C)C)ccc1OCCOCC[N+](C)(C)Cc1ccccc1` [Methylbenzethonium chloride] is greater than 46 µM; for `CNC(=O)OCC[N+](C)(C)C.[Cl-]` [Methylcarbamylcholine chloride] it is greater than 46 µM; for `C[C@](N)(Cc1ccc(O)c(O)c1)C(=O)O` [Methyldopa sesquihydrate] it is greater than 46 µM.
In the case of `COC(=O)c1ccc(O)cc1` [Methylparaben], the “IC50 of cell viability” value was greater than 46 µM.
In the case of `C#CC(C)(O)CC` (stereo unspecified) [Methylpentynolum], the “IC50 of cell viability” value is greater than 46 µM.
Then `COC(=O)C(c1ccccc1)C1CCCCN1.[Cl-].[H+]` (stereo unspecified) [Methylphenidate hydrochloride], with greater than 46 µM; and `CC(=O)OCC(=O)[C@@]1(O)CCC2C3C[C@H](C)C4=CC(=O)C=CC4(C)C3C(O)CC21C` (stereo partly specified) [Methylprednisolone acetate], with greater than 46 µM.
Turning to `C[C@H]\1C[C@H]2[C@H]3CC[C@](O)(C(=O)CO)[C@]3(C)C[C@@H](O)[C@@H]2[C@]4(C)\C=C/C(=O)/C=C14` [Methylprednisolone, 6-alpha], the “IC50 of cell viability” value was greater than 46 µM.
For the compound `Cc1cc2c(cc1[S+](N)(=O)[O-])[S+](=O)([O-])CCC2` [Meticrane], the “IC50 of cell viability” value is greater than 46 µM.
The figure for `CC(=O)Oc1c(C)cc(OCC(O)CNC(C)C)c(C)c1C` (stereo unspecified) [Metipranolol] is greater than 46 µM.
Regarding `CN1CCC[C@H](CC2c3ccccc3Sc3ccccc32)C1` [Metixene hydrochloride], the “IC50 of cell viability” value is greater than 46 µM.
As to `COc1ccc(/C=C/C(=O)c2ccc(OC)cc2OC)cc1` [Metochalcone], the “IC50 of cell viability” value is greater than 46 µM.
Take `Cc1ccccc1N1C(=O)c2cc([S+](N)(=O)[O-])c(Cl)cc2NC1C` (stereo unspecified) [Metolazone]: the “IC50 of cell viability” value is greater than 46 µM.
On to `COC1=CC=C2[N]3CCN(C)\C4=N\CCC(=C34)C2=C1` [Metralindole], for which the “IC50 of cell viability” value is greater than 46 µM.
Regarding `Cc1ccccc1CNc1ncnc2c1ncn2C1OC(CO)C(O)C1O` (stereo unspecified) [Metrifudil], the “IC50 of cell viability” value is greater than 46 µM.
Regarding `CC(=O)Nc1c(I)c(C(=O)N[C@H]2[C@H](O)[C@H](O)[C@H](CO)O[C@@H]2O)c(I)c(N(C)C(C)=O)c1I` [Metrizamide], the “IC50 of cell viability” value was greater than 46 µM.
The figure for `CC(C)(C(=O)c1cccnc1)c1cccnc1` [Metyrapone] is greater than 46 µM; for `C[C@](N)(Cc1ccc(O)cc1)C(=O)O` [Metyrosine] it is greater than 46 µM; for `COc1ccc(C(=O)c2ccc(C)cc2)c(O)c1` [Mexenone] it is greater than 46 µM.
Regarding `Cc1cccc(C)c1OCC(C)N.Cl` (stereo unspecified) [Mexiletene hydrochloride], the “IC50 of cell viability” value is greater than 46 µM.
Then `Clc1ccc(CO[C@@H](Cn2ccnc2)c2ccc(Cl)cc2Cl)c(Cl)c1` [Miconazole], with greater than 46 µM; and `CNC[C@@H]1CC[C@@H](N)[C@@H](O[C@H]2[C@H](O)[C@@H](O[C@H]3OC[C@](C)(O)[C@H](NC)[C@H]3O)[C@H](N)C[C@@H]2N)O1` [Micronomicin sulfate], with greater than 46 µM.
Consider `CCC(=O)O[C@@H]1[C@H](C)O[C@@H](O[C@H]2[C@@H](N(C)C)[C@@H](O)[C@H](O[C@H]3[C@H](CC=O)C[C@@H](C)[C@@H](O)/C=C\C=C/C[C@@H](C)OC(=O)C[C@@H](OC(=O)CC)[C@H]3OC)O[C@H]2C)C[C@]1(C)O` [Midecamycin], for which the “IC50 of cell viability” value was greater than 46 µM.
For the compound `COc1ccc(OC)c([C@H](O)CNC(=O)CN)c1` [Midodrine hydrochloride], the “IC50 of cell viability” value is greater than 46 µM.
The figure for `Cc1[nH]c(=O)c(C#N)cc1-c1ccncc1` [Milrinone] is greater than 46 µM; for `C\C1=C(\C=C(\C#N)C(=O)N1)C2=CC=NC=C2` [Milrinone] it is greater than 46 µM.
As to `CN(C)c1ccc(O)c2c1CC1CC3C(N(C)C)C(=O)C(C(N)=O)C(=O)C3(O)C(=O)C1C2=O` (stereo unspecified) [Minocycline], the “IC50 of cell viability” value was greater than 46 µM.
Take `O=P(O)(O)C(O)(Cc1cnc2ccccn12)P(=O)(O)O` [Minodronic acid]: the “IC50 of cell viability” value was greater than 46 µM.
As for `CCCCCCCCCCCCCCCCCCNC(=O)OC1CCN(C(=O)OC[C@H](COC(=O)N(Cc2cccc[n+]2CC)C(=O)c2ccccc2OC)OC)CC1` [Minopafant], the “IC50 of cell viability” value is greater than 46 µM.
As to `CN1CCN2c3ncccc3Cc3ccccc3C2C1` (stereo unspecified) [Mirtazapine], the “IC50 of cell viability” value was greater than 46 µM.
With `CCCCC(C)(O)C/C=C/[C@H]1[C@H](O)CC(=O)[C@@H]1CCCCCCC(=O)OC` (stereo partly specified) [Misoprostol], the “IC50 of cell viability” value is greater than 46 µM.
For `Clc1ccc(C(c2ccccc2Cl)C(Cl)Cl)cc1` (stereo unspecified) [Mitotane], the “IC50 of cell viability” value was greater than 46 µM.
Regarding `COc1cc2c(cc1OC)[C@@H](Cc1cc(OC)c(OC)c(OC)c1)[N@+](C)(CCCOC(=O)CC/C=C/CCC(=O)OCCC[N@+]1(C)CCc3cc(OC)c(OC)cc3[C@H]1Cc1cc(OC)c(OC)c(OC)c1)CC2` [Mivacurium], the “IC50 of cell viability” value was greater than 46 µM.
`NC(=O)c1ncn([C@@H]2O[C@H](CO)[C@@H](O)[C@H]2O)c1O` [Mizoribine]: the “IC50 of cell viability” value was greater than 46 µM.
With `O=C(NCCN1CCOCC1)c1ccc(Cl)cc1` [Moclobemide], the “IC50 of cell viability” value is greater than 46 µM.
With `CCc1c(C)[nH]c2c1C(=O)[C@H](CN1CCOCC1)CC2` [Molindone hydrochloride], the “IC50 of cell viability” value is greater than 46 µM.
In the case of `COc1ccc(C(=O)N2CCN(CC(=O)N3CCOCC3)CC2)cc1` [Molracetam], the “IC50 of cell viability” value is greater than 46 µM.
The figure for `CCOC(=O)[N-]c1c[n+](N2CCOCC2)no1` [Molsidomine] is greater than 46 µM.
For `C[C@H]1C[C@H]2[C@H]3CC\C4=C\C(=O)\C=C/[C@@]4(C)[C@@]3(Cl)[C@@H](O)C[C@]2(C)[C@]1(OC(=O)C5=CC=CO5)C(=O)CCl` [Mometasone furoate], the “IC50 of cell viability” value is greater than 46 µM.
`CCC1([C@@H]2O[C@@H]([C@@H]3O[C@](O)(CO)[C@@H](C)C[C@H]3C)C[C@H]2C)CC[C@H]([C@]2(C)CC[C@]3(C[C@@H](O)[C@@H](C)[C@H]([C@H](C)[C@H](OC)[C@H](C)C(=O)[O-])O3)O2)O1.[Na+]` (stereo partly specified) [Monensin sodium salt]: the “IC50 of cell viability” value was greater than 46 µM.
The figure for `CCCCC(CC)COC(=O)c1ccccc1C(=O)O` (stereo unspecified) [Mono(2-ethylhexyl) phthalate] is greater than 46 µM; for `[H][C@]12CC[N@@]3CC=C(COC(=O)[C@](C)(O)[C@](C)(O)[C@@]([H])(C)C(=O)O1)[C@]23[H]` [Monocrotaline] it is greater than 46 µM; for `Cc1ccc(C2(O)CCN(CCCC(=O)c3ccc(F)cc3)CC2)cc1` [Moperone] it is greater than 46 µM.
In the case of `Cc1ccsc1/C=C\C1=NCCCN1C.O=C(O)[C@@H](O)[C@@H](O)C(=O)O` [Morantel tartrate], the “IC50 of cell viability” value was greater than 46 µM.
Then `CCOC(=O)Nc1ccc2c(c1)N(C(=O)CCN1CCOCC1)c1ccccc1S2` [Moricizine hydrochloride], with greater than 46 µM.
As for `O=C(NCN1CCOCC1)c1cnccn1` [Morinamida], the “IC50 of cell viability” value was greater than 46 µM.
Then `N=C(N)NC(=N)N1CCOCC1` [Moroxidine hydrochloride], with greater than 46 µM; and `CN1CC[C@@]23C4OC5=C(O)C=CC(=C25)C[C@@H]1C3\C=C/C4O` (stereo partly specified) [Morphine], with greater than 46 µM.
As for `O=C1NC2CCCCN2C12CCN(CCCN1c3ccccc3CCc3ccc(Cl)cc31)CC2` (stereo unspecified) [Mosapramine], the “IC50 of cell viability” value was greater than 46 µM.
As to `[Na+].[Na+].CO[C@@]1(NC(=O)[C@H](C([O-])=O)C2=CC=C(O)C=C2)[C@@H]3OC\C(=C(/N3C1=O)C([O-])=O)CSC4=NN=N[N]4C` [Moxalactam disodium salt], the “IC50 of cell viability” value is greater than 46 µM.
In the case of `CO/N=C1/CC2(CC3CC(CC=C(C)CC(C)C=CC=C4COC5C(O)C(C)=CC(C(=O)O3)C45O)O2)OC(/C(C)=C/C(C)C)C1C` (stereo unspecified) [Moxidectin], the “IC50 of cell viability” value is greater than 46 µM.
